What all share (format): cell-based
For data set [1], the system named is rat primary cortical neurons. Put plainly: LDH release, human Aβ1-42 toxicity on rat primary cortical cells. On the procedure:
Primary rat cortical neurons are cultured as described previously.
Briefly, Aβ1-42 peptide was reconstituted in defined culture medium at 40 μM (mother solution) and was slowly shacked at +37° C. for 3 days in the dark for aggregation. The control medium was prepared in the same conditions.
After 10 days of neuron culture, the drug was solved in culture medium (+0.1% DMSO) and then pre-incubated with neurons for 1 hour before the Aβ1-42 application (in a final volume per culture well of 100 μl). […] Cortical neurons were intoxicated for 24 hours. Three separate cultures were performed per condition, 6 wells per condition.
Estradiol-β at 100 and 150 nM were used as a reference test compound and BDNF at 50 ng/ml was used as a positive control. Three separate cultures were performed per condition, […].
Estradiol-β and BDNF were solved in culture medium and pre-incubated for 1 h before the aggregated amyloid-β1-42 application.
Lactate Dehydrogenase (LDH) Activity Assay
This colorimetric assay for the quantification of cell toxicity is based on the measurement of lactate dehydrogenase (LDH) activity released from the cytosol of dying cells into the supernatant.
All values are expressed as mean±s.e.mean of the 3 cultures (n=6 per condition). Statistical analyses were done on the different conditions (ANOVA followed by the Dunnett's test when it was allowed, Statview software version 5.0).

Data set [2] has as its system human brain microvascular endothelial cells (HBMEC). Put plainly: Total length of capillary network in human Aβ1-42 intoxicated HBMEC cultures. The settings on record: for Effect on Aβ1-42 intoxication, total length of capillary network, drug alone / Prevention of Aβ1-42 intoxication, capillary network, drug alone: Aβ1-42 2.5 μM; for Prevention of Aβ1-42 intoxication, capillary network, drug alone: dose-response experiments, 18 h. On the procedure:
Human brain microvascular endothelial cell cultures were used to study the protection afforded by candidate compounds on Aβ1-42 toxicity.
Human brain microvascular endothelial cerebral cells (HBMEC, ScienCell Ref: 1000, frozen at passage 10) were rapidly thawed in a water bath at +37° C. […] On matrigel support, endothelial cerebral cells spontaneously started the process of capillary network morphogenesis (47).
Three separate cultures were performed per condition, 6 wells per condition.
The control medium was prepared in the same conditions.
The Aβ1-42 peptide was added 2 hours after HBMEC seeding on matrigel for 18 hours incubation.
Capillary Network Quantification
Per well, 2 pictures with 4× lens were taken using InCell Analyzer™ 1000 (GE Healthcare) in light transmission. All images were taken in the same conditions. Analysis of the angiogenesis networks was done using Developer software (GE Healthcare). The total length of capillary network was assessed.
All values are expressed as mean±s.e.mean of the 3 cultures (n=6 per condition). Statistical analyses were done on the different conditions performing an ANOVA followed by the Dunnett's test when it was allowed (Statview software version 5.0). The values (as %) inserted on the graphs show the amyloid toxicity evolution. Indeed, the amyloid toxicity was taken as the 100% and the test compound effect was calculated as a % of this amyloid toxicity.

Data set [3] concerns rat endothelial cerebral cells. Put plainly: LDH release from rat endothelial cerebral cells, beta-amyloid (Aβ25-35) toxicity. To be noted: for Prevention of Aβ25-35 intoxication, LDH release: Aβ25-35 30 μM, 3 days, drug added 1 hour before; for Spontaneous cell death in the culture medium: LDH release, rat endothelial cerebral cells. On the procedure:
Primo culture of rat endothelial cerebral cells (Vect-Horus SAS, Marseille) is cultivated on passage 0. At confluence, endothelial cells are dissociated with trypsin EDTA (Pan Biotech Ref: P10-023100). Cells are seeded at a density of 25,000 cells/well in 96-well plates (wells are coated with 30 μl of type I rat collagen at 1.5 mg/ml, Vect-Horus SAS, Marseille) and are cultured in MCBD 131 medium (M-131-500, Invitrogen) supplemented with 1% of microvascular growth supplement (MVGS, S-005-25, Invitrogen). Cells are cultured at 37° C. in a humidified air (95%)/CO2(5%) atmosphere. Half of the medium is changed every other day with fresh medium.
After 4 days, drugs are added to the cell culture medium, at different concentrations, solved in DMSO 0.1% or water.
Cells are then intoxicated with 30 μM of β-amyloid (25-35; Sigma) together with drugs in the same culture medium. Cells are then intoxicated for 3 days.
For each culture, after 3 days of intoxication, the supernatant is collected and analyzed with the Cytotoxicity Detection Kit (LDH, Roche Applied Sciences). This colorimetric assay for the quantification of cell death is based on the measurement of lactate dehydrogenase (LDH) activity released from the cytosol of damaged cells into the supernatant. The optic density (DO) is assessed by spectrophotometer at 492 nm wavelength by a multiscan apparatus (Thermo, Ref Ascent).
Results presented in FIG. 3 are extracted from two independent cultures, 6 wells per condition. All values are expressed as mean±s.e.m. A bilateral Student's t test analysis is performed on raw data. Results are expressed in percentage of cell viability, compared to the control (vehicle).
Drugs are incubated with rat primary cerebral endothelial cells for one hour before Aβ25-35 30 μM intoxication that lasts 3 days.
Three days after this incubation, LDH release in the culture medium is quantified, reflecting the level of cell death.
Background: Release of lactate dehydrogenase indicates damage to the cell membrane.

The subject of data set [4] is rat primary cortical neurons. Put plainly: LDH release in Aβ25-35 intoxicated rat primary cortical neuron culture. To be noted: Aβ25-35 20 μM, 2 days; drug added 1 hour before. On the procedure: Primary rat cortical neurons are cultured as described by Singer et al., 1999. Briefly pregnant female rats of 15 days gestation are killed by cervical dislocation (Rats Wistar; Janvier) and the foetuses removed from the uterus. The cortexes are removed and placed in ice-cold medium of Leibovitz (L15; Invitrogen) containing 1% of Penicillin-Streptomycin (PS; Invitrogen) and 1% of bovine serum albumin (BSA; Sigma). Cortexes are dissociated by trypsinisation for 20 min at 37° C. (Trypsin EDTA 1×; Invitrogen) diluted in PBS without calcium and magnesium. The reaction is stopped by the addition of Dulbecco's modified Eagle's medium (DMEM; Invitrogen) containing DNAase I grade II (0.1 mg/ml; Roche Diagnostics) and 10% of foetal calf serum (FCS; Invitrogen). Cells are then mechanically dissociated by 3 passages through a 10 ml pipette. Cells are then centrifuged at 180×g for 10 min at 10° C. […] Viable cells are counted in a Neubauer cytometer using the trypan blue exclusion test. Cells are seeded at a density of 30,00-cells/well in 96-well plates (wells are pre-coated with poly-L-lysine (10 μg/ml; […] After 6 days of culture, cells are incubated with drugs (5 concentrations). After 1 hour, cells are intoxicated by 20 μM of β-amyloid (25-35; Sigma) in defined medium without BDNF but together with drugs. Cortical neurons are intoxicated for 2 days. After 2 days of culture, the supernatant is collected and analyzed with the Cytotoxicity Detection Kit (LDH, Roche Applied Sciences). This colorimetric assay for the quantification of cell death is based on the measurement of lactate dehydrogenase (LDH) activity released from the cytosol of damaged cells into the supernatant. The optic density (DO) is assessed by spectrophotometer at 492 nm wavelength by a multiscan apparatus (Thermo, Ref Ascent). […] Two days after this incubation, LDH release in the culture medium is quantified, reflecting the level of cell death.

Setting [5] is: drug pretreatment, concentration not given.
Where [6] appears, read: alone at the concentrations used in the combination (FIGS. 8-13).

`NCC(CC(=O)O)c1ccc(Cl)cc1` (racemic) [Baclofen]: the “LDH release, prevention of Aβ1-42 intoxication” value (“LDH release, prevention” for short) in data set [1] (setting [5]) is recorded as −86%. Besides, in data set [2] (setting [6]), the “Effect on Aβ1-42 intoxication, total length of capillary network, drug alone” value (from here on “Effect … of capillary network, drug alone”) is given as “no significant effect”. Also, the “Prevention of Aβ1-42 intoxication, capillary network, drug alone” value (“Prevention … drug alone” below) in data set [2] is “significantly prevented”.

As for `NCCCCCC(=O)O` [Aminocaproic acid, Aminocaproic Acid], the “Effect … of capillary network, drug alone” value in data set [2] (setting [6]) was “no significant effect”.

In the case of `NCC(CC(=O)O)c1ccc(Cl)cc1` (stereo not drawn) [Baclofen (−), Baclofen], the “Prevention of Aβ25-35 intoxication, LDH release” value in data set [3] is on record as “significantly prevented”.

For the molecule `CCN(CC)C(=O)N1CCN(C)CC1` [Carbamazine], the “Effect on Aβ1-42 intoxication, LDH release, drug alone” value in data set [1] (0.32 nM alone, Aβ1-42 2.5 μM) is recorded as “no significant effect”. For the same molecule, the “LDH release, prevention” value in data set [1] (40 nM, Aβ1-42 10 μM) is −68%. Besides, the “Protective effect against toxicity of Aβ peptide 1-42, drug alone” value in data set [1] (40 nM, primary cortical neuron cells) is “strong protective effect”.

Turning to `CC1(C)[C@@H](OC(=O)CCC(=O)O)CC[C@]2(C)[C@H]3C(=O)C=C4[C@@H]5C[C@@](C)(C(=O)O)CC[C@]5(C)CC[C@@]4(C)[C@]3(C)CC[C@@H]12` [Carbenoxolone], the “LDH release, prevention” value in data set [1] (setting [5]) is on record as −39%.

Consider `C(=C\c1ccccc1)/CN1CCN(C(c2ccccc2)c2ccccc2)CC1` [Cinnarizine], for which, in data set [1] (setting [5]), the “LDH release, prevention” value is recorded as −50%.

`CCOC(=O)c1cncn1[C@H](C)c1ccccc1` [Etomidate]: in data set [1] (setting [5]), the “LDH release, prevention” value is reported as −50%.

Consider `Cc1oncc1C(=O)Nc1ccc(C(F)(F)F)cc1` [Leflunomide], for which, in data set [3], the “Prevention of Aβ25-35 intoxication, LDH release” value is “significantly prevented” and the “Spontaneous cell death in the culture medium” value is listed as “decrease spontaneous cell death”. In data set [4], the “Prevention of Aβ25-35 intoxication, LDH release” value is given as “significantly prevented”.

Take `C[C@@H]1CC(=O)NN=C1c1ccc(NN=C(C#N)C#N)cc1` [Levosimendan]: the “LDH release, prevention” value in data set [1] (setting [5]) is listed as −47%. For the same molecule, the “Protective effect against toxicity of Aβ peptide 1-42, drug alone” value in data set [2] (8 nM, HBMEC) was “strong protective effect”. Moreover, the “Effect … of capillary network, drug alone” value in data set [2] (setting [6]) was “no significant effect”. Also, the “Prevention … drug alone” value in data set [2] is reported as “significantly prevented”.

Consider `Cc1noc(NS(=O)(=O)c2ccc(N)cc2)c1C` [Sulfisoxazole], for which the “LDH release, prevention” value in data set [1] (setting [5]) is −42%. The “Prevention of Aβ25-35 intoxication, LDH release” value in data set [3] and in data set [4] was “significantly prevented” in each case. The “Effect … of capillary network, drug alone” value in data set [2] (1.36 nM alone) and in data set [2] (setting [6]) was “no significant effect” each time. Also, the “Prevention … drug alone” value in data set [2] was “significantly prevented”.

On to `CN(C/C=C/C#CC(C)(C)C)Cc1cccc2ccccc12` [Terbinafine], for which, in data set [3], the “Prevention of Aβ25-35 intoxication, LDH release” value is reported as “significantly prevented” and the “Spontaneous cell death in the culture medium” value is listed as “decrease spontaneous cell death”. Moreover, the “Effect … of capillary network, drug alone” value in data set [2] (setting [6]) is “no significant effect”. The “Prevention … drug alone” value in data set [2] is reported as “significantly prevented”.

B1: brain-derived neurotrophic factor (protein, UniProt P23560 19-247, looked up)
Neurotrophic factor BDNF …: APMKEANIRGQGGLAYPGVRTHGTLESVNGPKAGSRGLTSLADTFEHVIEELLDEDQKVRPNEENNKDADLYTSRVMLSSQVPLEPPLLFLLEEYKNYLDAANMSMRVRRHSDPARRGELSVCDSISEWVTAADKKTAVDMSGGTVTVLEKVPVSKGQLKQYFYETKCNPMGYTKEGCRGIDKRHWNSQCRTTQSYVRALTMDSKKRIGWRFIRIDTSCVCTLTIKRGR
notes: positive control for neuroprotection at 50 ng/ml
As for B1, the “LDH release, protection from amyloid injury” value in data set [1] (BDNF 50 ng/ml, 1 hr pre-treatment, Aβ1-42) is −62%.

(Values after patent publication US9387206B2, “Therapeutic approaches for treating Alzheimer's disease” (PHARNEXT, priority 2009, dated 2016).)
